# pIC50: −log10 of the molar value.
# Experiments:
# [1] = system: malignant glioma U87-MG cells; assay: MTT cell growth inhibition, U87-MG glioma; format: cell-based, human; details: U87-MG vs normal human astrocytes
# Procedure: (§1) 1. MTT Assays. For these assays either cancer cell lines were used. Alternatively, mononuclear cells from peripheral blood samples of CLL patients or normal donors were separated by Ficoll Hipaque fractionation and resuspended in DMEM complete medium. Malignant cells from various human cell lines (usually at 5×10^4 cells/ml) or mononuclear cells from peripheral blood of leukemia patients and healthy donors (1×10^6 cells/ml) were incubated in either αMEM or RPMI 1640 with or without various concentrations of OSW-1 in the range of 0-10 nM. Each experimental condition was done in triplicate. After the indicated number of days (usually 3 days or 72 hours) of exposure to OSW-1, cell survival was assessed by the addition of the MTT dye to the wells. The MTT dye changes its color depending on the presence of live cells in the well. Survival of cells under orsaponin treatment was evaluated as a percentage of control cell growth. Alternatively, one can also use the dye trypan-blue which penetrates dead cells thereby allowing one to count live cells under the microscope and estimating percentage survival.
# To test the therapeutic selectivity of Orsaponin and 17-deoxyorsaponin, their effect on human brain tumor cells (U87 malignant glioma) and normal human astrocytes were compared. The normal human astrocytes were previously immortalized by transfection with hTER to allow a long-term culture in vitro. The antiproliferative effect of Orsaponin in human malignant glioma cells (U87-MG) and normal human astrocytes was examined. Cells were incubated with various concentrations of Orsaponin for 72 h. Cell growth inhibition was measured by MTT assay (FIG. 21).
# [2] = system: pancreatic cancer AsPC-1 cells; assay: MTT cell growth inhibition, AsPC-1; format: cell-based, human; details: Homo sapiens, ASPC1, 72 h, AsPC-1, 72 h
# Procedure: FIG. 3. Effect of Orsaponin (OSW-1) on cell growth in human pancreatic cancer cells. Human pancreatic cancer AsPC-1 cells were treated with the indicated concentrations of OSW-1 for 72 h or 96 h. Cell growth inhibition was measured by MTT assay.
# FIG. 4. The anticancer activity of Orsaponin (OSW-1) is not affected by NFκB expression in pancreatic cancer cells. Human pancreatic cancer cells AsPC-1 with constitutive activation of NFκB or inactivation of NFκB by dominant negative IκBα (AsPC-1/IκBα-ND) were treated with the indicated concentrations of OSW-1 for 72 h. Cell growth inhibition was measured by MTT assay.
# Cells and Cell Lines. Various cancer cell lines were used including the human leukemia cell lines HL-60 and ML-1 cells; human lymphoma cell line Raji; human pancreatic cancer cells AsPC-1; and human ovarian cancer cells SKOV3; human colon cancer cells HCT116; as well as isolated CLL cells from patients; and lymphocytes from normal donors. […]
# (§2) 1. […] After the indicated number of days (usually 3 days or 72 hours) of exposure to OSW-1, cell survival was assessed by the addition of the MTT dye to the wells. […] Survival of cells under orsaponin treatment was evaluated as a percentage of control cell growth. […]
# (§3) The effect of Orsaponin and 17-deoxyorsaponin in pancreatic cancer cells was also assessed. […] Cell growth inhibition was measured by MTT assay.
# [3] = system: HCT116 p53+/+ colon cancer cells; assay: MTT cell growth inhibition, HCT116 p53+/+; format: cell-based; details: Homo sapiens, HCT-116, 72 h
# Procedure: as §1
# (§4) Anticancer activity of 17-deoxyorsaponin in human colon cancer cells was examined. HCT116 p53+/+ and HCT116 p53−/− human colon cancer cells were incubated with the various concentrations of 17-deoxyorsaponin for 72 h. Cell growth inhibition was measured by MTT assay.
# [4] = system: pancreatic cancer (Panco-2) cells; assay: MTT cell growth inhibition, Panco-2; format: cell-based; details: Mus musculus, Panco-2, 72 h
# Procedure: as §1, §3
# [5] = system: HCT116 p53−/− colon cancer cells; assay: MTT cell growth inhibition, HCT116 p53−/−; format: cell-based; details: Homo sapiens, HCT-116, 72 h
# Procedure: as §1, §4
# [6] = system: ML-1 leukemia cells; assay: MTT cell growth inhibition, ML-1; format: cell-based, human; details: ML-1, 72 h
# Procedure: as §1
# (§5) Anticancer activities of Orsaponin and 17-deoxyorsaponin were examined in human leukemia cells (ML-1) and human lymphoma cells (Raji). Cells were incubated with various concentrations of Orsaponin and 17-deoxyorsaponin for 72 h, and cell growth inhibition was measured by MTT assay.
# The effect of 17-deoxyorsaponin in human ovarian cancer cells was determined. SKOV3 ovarian cancer cells were incubated with various concentrations of 17-deoxyorsaponin for 72 h. Cell growth inhibition was measured by MTT assay (FIG. 17). […] The effect of 17-deoxyorsaponin in human acute myeloid leukemia cells was also examined. ML-1 leukemia cells were incubated with various concentrations of 17-deoxyorsaponin for 72 h and cell growth inhibition was measured using the MTT assay (FIG. 18).
# [7] = system: primary CLL cells; assay: cells; format: cell-based; details: Homo sapiens, CLL cell, CLL cells, median of 11 patient samples; read-out: IC50 (nM), Median
# Procedure: FIG. 7. Effect of Orsaponin (OSW-1) on cell survival in primary human leukemia cells isolated from patients with chronic lymphocytic leukemia (CLL). Freshly isolated primary CLL cells were incubated with the indicated concentrations of OSW-1 for 72 hours in vitro. Cell viability was measured by MTT assay. […] Data from representative experiments with CLL cells from three different patients are shown. A total of 23 CLL blood samples were tested for sensitivity to OSW-1 in the same fashion.
# as §1
# Reduction of Cell Viability in CLL-Patient-Derived Cells. […] Freshly isolated primary CLL cells were incubated with the 0-100 nM OSW-1 for 72 hours in vitro and cell viability was measured by the MTT assay.
# Cytotoxic activity of 17-deoxyorsaponin was also assessed in a number of patient samples. Primary human leukemia cells isolated from 11 patients with chronic lymphocytic leukemia (CLL) were analyzed for cytotoxic activity of 17-deoxyorsaponin. […]
# [8] = system: Raji cells (lymphoma); assay: MTT cell growth inhibition, Raji; format: cell-based, human; details: Homo sapiens, 72 h
# Procedure: FIG. 2. Effect of Orsaponin (OSW-1) on cell growth in two human cancer cell lines including a leukemia and a lymphoma cell line. HL-60 (leukemia) and Raji cells (lymphoma) in exponentially growing phase were treated with the indicated concentrations of OSW-1 for 72 hours. Cell growth inhibition was measured by MTT assay.
# Cells and Cell Lines. Various cancer cell lines were used including the human leukemia cell lines HL-60 and ML-1 cells; human lymphoma cell line Raji; human pancreatic cancer cells AsPC-1; and human ovarian cancer cells SKOV3; human colon cancer cells HCT116; as well as isolated CLL cells from patients; and lymphocytes from normal donors. Cells were grown and maintained as per protocols known in the art using appropriate cell culture media and supplements.
# as §2, with “1. MTT Assays. For these assays either cancer cell lines were used.” for “1.”
# as §5
# [9] = system: ovarian cancer SKOV3 cells; assay: MTT cell growth inhibition, SKOV3; format: cell-based; details: Homo sapiens, SK-OV-3, SKOV3, 72 h
# Procedure: FIG. 5. Effect of Orsaponin (OSW-1) on cell growth in human ovarian cancer cells (SKOV3). Human ovarian cancer SKOV3 cells were treated with the indicated concentrations of OSW-1 for 72 h. Cell growth inhibition was measured by the MTT assay. The IC50 value is approximately 0.2 nM under the experimental conditions.
# 1. MTT Assays. For these assays either cancer cell lines were used. Alternatively, mononuclear cells from peripheral blood samples of CLL patients or normal donors were separated by Ficoll Hipaque fractionation and resuspended in DMEM complete medium. […] After the indicated number of days (usually 3 days or 72 hours) of exposure to OSW-1, cell survival was assessed by the addition of the MTT dye to the wells. […] Survival of cells under orsaponin treatment was evaluated as a percentage of control cell growth. […]
# OSW-1 Inhibits Growth of Ovarian Cancer Cells. […] Human ovarian cancer SKOV3 cells were treated with 0-10 nM OSW-1 for 72 h and cell growth inhibition was measured by the MTT assay.
# The effect of 17-deoxyorsaponin in human ovarian cancer cells was determined. […] Cell growth inhibition was measured by MTT assay (FIG. 17). […] ML-1 leukemia cells were incubated with various concentrations of 17-deoxyorsaponin for 72 h and cell growth inhibition was measured using the MTT assay (FIG. 18).
structure (smiles),measurement,setting,value
COc1ccc(C(=O)OC2C(OC3C(O)COC(O[C@H]4C[C@H]5[C@@H]6CC=C7C[C@@H](O)CC[C@]7(C)[C@H]6CC[C@]5(C)[C@H]4[C@H](C)C(=O)CCC(C)C)C3OC(C)=O)OCC(O)C2O)cc1 (stereo partly shown) [17-deoxyorsaponin],sensitivity of glioma cells compared with normal astrocytes,[1],more sensitive
same,pIC50,[2],9.00
same,pIC50,[3],~9.00
same,pIC50,[4],10.00
same,pIC50,[5],~9.00
same,pIC50,"[6]; Homo sapiens, 72 h",> 10.00
same,pIC50,[6],~9.70
same,IC50,[7],0.37 nM
same,pIC50,[8],> 10.00
same,pIC50,[9],~10.00

# Reference: US20050004044A1, “Use of orsaponin [3beta, 16beta, 17 alpha-trihydroxycholost-5-en-22-one 16-0-(2-0-4-methoxybenzoyl-beta-D-xylopyranosyl)-(1->3)-(2-0-acetyl-alpha-L-arabinopyranoside)] or OSW-1 and its derivatives for cancer therapeutics” (priority 2003, published 2005)
